Data: article PMC5610175, “The Kinetochore Receptor for the Cohesin Loading Complex” (Cell, 2017)
Blank lines part the entries; values can stand above or below the molecule they belong to. Non-standard residues stand in square brackets, D forms with d. Residues, ends and D or L forms follow the SMILES beside them. No end group written: not given here. pT = C[C@@H](OP(=O)(O)O)[C@H](N)C(=O)O; pS = N[C@@H](COP(=O)(O)O)C(=O)O

Legend:
Scc2^1-181-Scc4 (WT) = target: T1, Scc2^1-181-Scc4 (WT) (Saccharomyces cerevisiae, UniProt P40090+Q04002); assay: Peptide binding to Scc2^1-181-Scc4 WT by biolayer interferometry; design: species or system budding yeast; conditions: for binding to Scc2^1–181-Scc4 in vitro (in words): Scc2^1–181-Scc4 WT
T1 construct: made in house; host or cells: bacteria (E. coli is stated only for the Ctf19 complex proteins)
T1 sequence (P40090 1-624): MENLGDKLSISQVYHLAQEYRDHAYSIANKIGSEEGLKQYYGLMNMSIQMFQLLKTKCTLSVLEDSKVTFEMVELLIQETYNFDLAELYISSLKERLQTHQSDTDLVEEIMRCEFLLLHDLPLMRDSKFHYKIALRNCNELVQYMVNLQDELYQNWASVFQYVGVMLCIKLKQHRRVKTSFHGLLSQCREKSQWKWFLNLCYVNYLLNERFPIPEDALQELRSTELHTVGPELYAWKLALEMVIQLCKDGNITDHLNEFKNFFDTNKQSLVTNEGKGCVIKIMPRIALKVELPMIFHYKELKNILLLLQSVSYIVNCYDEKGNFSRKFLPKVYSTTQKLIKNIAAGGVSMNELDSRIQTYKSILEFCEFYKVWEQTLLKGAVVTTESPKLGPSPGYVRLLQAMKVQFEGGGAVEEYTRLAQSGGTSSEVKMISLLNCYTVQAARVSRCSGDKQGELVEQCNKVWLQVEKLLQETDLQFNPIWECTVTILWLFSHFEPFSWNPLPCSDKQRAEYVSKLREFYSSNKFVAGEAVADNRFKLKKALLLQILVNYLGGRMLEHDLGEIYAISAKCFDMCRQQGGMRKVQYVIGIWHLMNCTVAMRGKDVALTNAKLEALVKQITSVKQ
T1 sequence (Q04002 1-181 partner limits assumed): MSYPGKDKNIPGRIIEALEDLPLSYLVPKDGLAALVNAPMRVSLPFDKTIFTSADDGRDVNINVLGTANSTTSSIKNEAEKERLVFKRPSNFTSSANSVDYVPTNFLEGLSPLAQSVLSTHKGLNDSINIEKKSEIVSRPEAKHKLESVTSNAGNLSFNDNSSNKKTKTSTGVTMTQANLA
Protocol: Figure S5 Synthetic Ctf19^1–11 binds Scc2^1–181-Scc4, and Binding Requires Phosphorylation of Ctf19 Residue T4 or S5, Related to Figure 6 Experiments were carried out as in Figure 6B (error bars – +/−SD for three independent experiments, obscured by data points where not visible). m3 refers to immobilized Scc2^1-181-Scc4^m3. Ctf19 peptides and Scc2^1-181-Scc4 complexes used are listed in the table along with measured dissociation constants (Kd; SE – standard error for best-fit binding curve; single site, specific binding; Phos. – phosphorylated residues). TEXT PRINTED IN THE PICTURE: Ctf19 residues 1-11; Phos. none: Kd(±SE)(μM): n.d. (Scc2^1-181-Scc4: WT) | Ctf19 residues 1-11; Phos. pT4: Kd(±SE)(μM): 1757(6000+) (Scc2^1-181-Scc4: WT) | Ctf19 residues 1-11; Phos. pS5: Kd(±SE)(μM): 122(66) (Scc2^1-181-Scc4: WT); Kd(±SE)(μM): n.d. (Scc2^1-181-Scc4: m3) | Ctf19 residues 1-6; Phos. pT4;pS5: Kd(±SE)(μM): 22.6(3.0) (Scc2^1-181-Scc4: WT)
We used biolayer interferometry (ForteBio) to quantify the interaction between Scc2^1-181–Scc4 and synthetic peptides derived from the N-terminal region of Ctf19 (Tufts University Core Facility, Boston). For all steps, we used octet buffer (40mM HEPES, pH 7.5; 200mM NaCl; 1mM DTT) and low-volume 96-well opaque black plates. […] This step was allowed to reach saturation before a final incubation in octet buffer.
To derive binding curves, we first applied a linear correction so that all association steps began at zero response units. We then performed a linear drift correction by subtracting the signal for Scc2^1-181-Scc4 incubated in buffer alone during the association step (no peptide, linear subtraction for each time point, independent control for each experiment). We then applied a loading factor to correct for the Scc2^1-181-Scc4 immobilization efficiency for each well. From these normalized association curves, we extracted maximum responses for each well by averaging the signal across the final ten seconds of the association step. We performed these operations for three independent experiments, performed with new tips and samples, for each data point. […] Data points represent mean maximum responses, and error bars show the standard deviation for the three experiments. Fits were determined using GraphPad Prism software assuming a single specific binding site.

[1] = test system: analog-sensitive DDK (Cdc7-AS3/Dbf4); assay: DDK activity assay: phosphate transfer to Ctf19-Mcm21 by analog-sensitive DDK; type: biochemical, S. cerevisiae; conditions: Ctf19-Mcm21 substrate, γ-^32[P]-ATP, one hour at 30°C, autoradiography, similar to those that inhibit kinase activity in vivo (Wan et al., 2006)
Protocol: Figure S2 Determinants of Ctf19 Phosphorylation by DDK, Related to Figure 1 (A) Products of phosphorylation reactions containing Ctf19-Mcm21, analog-sensitive DDK, γ-^32[P]-ATP, and increasing concentrations of PP1. (B) Reactions carried out as in panel A, except wild-type DDK was used as in Figure 1B. After phosphorylation, reactions were subjected to a brief cleavage reaction by incubation with trypsin (top, autoradiography). Identical cleavage reactions were carried out in the absence of DDK and ATP to identify Ctf19-Mcm21 cleavage fragments (bottom; Coomassie). A schematic of the cleavage reaction is shown below (PDB: 3ZXU). (C) Phosphorylation of mutant Ctf19-Mcm21 complexes by purified DDK. Phosphorylation reactions were carried out as in panel A except that PP1 was not included. Substrates are indicated below. […] Reactions were carried out as in (B) in the presence or absence of an equimolar amount of purified Ctf3 complex.
An S. cerevisiae strain in which Cdc7 has been tagged at its C terminus with a TAP tag (calmodulin binding peptide – TEV site – tandem Protein A tags) was grown to an optical density (A600) of 2 in 12 l of yeast extract peptone dextrose (YPD) medium. […]
For phosphorylation reactions, purified DDK was concentrated to approximately 20uM as determined by absorbance at 280nm. […] Reaction products were analyzed by SDS-PAGE and autoradiography.

[2] = test system: centromeric Scc2 in ctf3Δ cells expressing DBF4-FRB and CTF19-FKBP12; assay: Artificial tethering of Dbf4-FRB to Ctf19-FKBP12: centromeric Scc2 localization by ChIP-qPCR; type: cell-based, budding yeast; conditions: rapamycin 1 μM, 2.5 hr, nocodazole and benomyl, versus DMSO, at least four independent experiments
Protocol: (F) Scc2 localization was assessed by ChIP-qPCR in the presence or absence of DDK tethering, CTF3, and Ctf19 phosphorylation sites. Wild-type (AM21613), ctf19-9A (AM21681), ctf19-2A (AM22360), ctf3Δ (AM21614), ctf19-9A ctf3Δ (AM21617), ctf19-2A ctf3Δ (AM22672), and control (AM21486) strains, all expressing DBF4-FRB and CTF19-FKBP12, were arrested in G1 for 3 hr before release into medium containing nocodazole, benomyl, and either DMSO (no DDK tethering) or rapamycin (DDK tethering; 1 μM) for 2.5 hr. Mean values of at least four independent experiments are shown. Error bars indicate SE (^∗p < 0.05; ^∗∗p < 0.01; Student’s t test, unpaired, two-tails; ns, not significant).
To artificially tether Dbf4 to the kinetochores, Dbf4 was tagged with FRB (pFA6a-FRB-KanMX6), and CTF19, ctf19-9A and ctf19-2A were tagged with FKBP12-TRP1 (pFA6a-FKBP12-TRP1). Proteins were tagged at their C-termini by one-step cassette integrations at their original gene loci as previously described ([Haruki et al., 2008]). Yeast strains for these experiments also carried TOR1-1, which confers rapamycin resistance, and the fpr1Δ mutation. Tethering of FRB and FKBP12 fusion proteins was induced by addition of rapamycin to the medium at a final concentration of 1 μM. For control cultures, an equal volume of DMSO was added instead. […]

[3] = target: T2, Scc2^1–181-Scc4 complex, wild type, tagged (6His-FLAG-Scc2 1-181; 6His-Scc4) (S. cerevisiae, UniProt Q04002 1-181; P40090 1-624); assay: BLI; phosphorylated T4; SE 6000+
T2 chain 1: T1 sequence (Q04002 1-181 partner limits assumed)
T2 chain 2: T1 sequence (P40090 1-624)

[4] = target: T3, Scc2^1–181-Scc4 complex, wild type, tagged (6His-FLAG-Scc2 1-181; 6His-Scc4) (S. cerevisiae, UniProt Q04002 1-181; P40090 1-624); assay: BLI; ForteBio; 6His-tagged Scc2 1-181-Scc4 captured on NiNTA tips, Ctf19 peptides in solution at varying concentrations; 40mM HEPES pH 7.5, 200mM NaCl, 1mM DTT; steady-state responses, single specific site fit (Prism); three independent experiments; conditions: both partners purified
T3 construct: Scc4, budding yeast cohesin loader subunit; source: recombinant, expressed in bacteria, purified; not shown: 6His, N-terminal, kept; FLAG, N-terminal, kept
T3 sequence 1: T1 sequence (Q04002 1-181 partner limits assumed)
T3 sequence 2: T1 sequence (P40090 1-624)

[5] = target: T4, Scc4, as in the crystallised Scc2^1–181-Scc4 complex (S. cerevisiae, UniProt P40090 1-624); assay: crystal structure; TEV-cleaved Scc2 1-181-Scc4 mixed with Ctf19 1-6 diphosphorylated peptide at 1:1.8; 8% PEG 4,000, 80mM PIPES pH 6, 18°C; space group P6_2, 3.19Å; conditions: both partners purified
T4 construct: Scc4, budding yeast cohesin loader subunit; Single chain of m8, for the pairs within the structure; not shown: 6His, N-terminal, cleaved
T4 sequence: T1 sequence (P40090 1-624)

[6] = target: T2, Scc2^1–181-Scc4 complex, wild type, …; assay: BLI; phosphorylated S5

Molecule: MDFTSDTTNSH [Ctf19 residues 1-11; Phos. none, unmodified synthetic Ctf19^1–11 peptide]
binding to Scc2^1–181-Scc4 in vitro (in words) (Scc2^1-181-Scc4 (WT); pH 7.5, listed as unmodified Ctf19^1–11): did not interact with Scc2^1–181-Scc4
binding to Scc2^1–181-Scc4 in vitro (in words) (Scc2^1-181-Scc4 (WT); pH 7.5, listed as unphosphorylated peptide): did not

Molecule: CC(C)(C)n1nc(-c2cccc3ccccc23)c2c(N)ncnc21 [PP1]
concentration at which phosphate transfer to Ctf19 was inhibited [1]: ~25 µM

Molecule: CSCC[C@H](N)C(=O)N[C@@H](CC(=O)O)C(=O)N[C@@H](Cc1ccccc1)C(=O)N[C@H](C(=O)N[C@@H](COP(=O)(O)O)C(=O)N[C@@H](CC(=O)O)C(=O)O)[C@@H](C)OP(=O)(O)O [Ctf19 residues 1-6; Phos. pT4;pS5] (HELM PEPTIDE1{M.D.F.[C[C@@H](OP(=O)(O)O)[C@H](N[*:1])C(=O)[*:2]].[O=C([C@H](COP(=O)(O)O)N[*:1])[*:2]].D}$$$$V2.0)
Kd (Scc2^1-181-Scc4 (WT); immobilized Scc2^1-181-Scc4 WT on NiNTA tips, 40mM HEPES, pH 7.5, 200mM NaCl, 1mM DTT, three independent experiments, SE for best-fit binding curve, single site, specific binding): 22.6 µM

Molecule: CO[C@H]1C[C@@H]2CC[C@@H](C)[C@@](O)(O2)C(=O)C(=O)N2CCCC[C@H]2C(=O)O[C@H]([C@H](C)C[C@@H]2CC[C@@H](O)[C@H](OC)C2)CC(=O)[C@H](C)/C=C(\C)[C@@H](O)[C@@H](OC)C(=O)[C@H](C)C[C@H](C)/C=C/C=C/C=C/1C [rapamycin]
effect on Ctf3 requirement for centromeric Scc2 localization (in words) [2]: bypassed the Ctf3 requirement

The remaining lines, values ahead:

binding to Scc2^1–181-Scc4 in vitro (in words) (Scc2^1-181-Scc4 (WT); pH 7.5): detectable binding
Molecule: MDFpTSDTTNSH [Ctf19 residues 1-11; Phos. pT4, synthetic Ctf19^1–11 peptide phosphorylated at T4]

Kd [3]: 1760 µM
Molecule: MDF[pT]SDTTNSH [Synthetic Ctf19^1–11 peptide phosphorylated at T4 (MDFpTSDTTNSH)]

Kd [4]: ~23 µM
B1: Synthetic Ctf19^1–6 peptide phosphorylated at T4 and S5 (MDFpTpSD) (peptide)
peptide: MDF[pT][pS]D
notes: Ctf19 residues 1-6, budding yeast; also called phosphorylated Ctf19^1–6; Ctf19^1-6 diphosphorylated peptide; source: synthetic peptide (Tufts Univ. Core Facility)

binding result [5]: binds
B2: Scc2^1–181, as in the crystallised Scc2^1–181-Scc4 complex (domain or fragment, S. cerevisiae, UniProt Q04002 1-181, looked up)
chain: T1 sequence (Q04002 1-181 partner limits assumed)
notes: Single chain of m8, for the pairs within the structure; also called Scc2n; source: recombinant, purified with Scc4, tags cleaved with TEV protease; not shown: 6His, N-terminal, cleaved

Kd [6]: 122 µM
Molecule: MDFT[pS]DTTNSH [Synthetic Ctf19^1–11 peptide phosphorylated at S5 (MDFTpSDTTNSH)]
